Entries after “also recorded” stand apart in the source; their conditions may differ.
Assays:
[1] = test system: ATP6V1A; assay: ATP6V1A mRNA expression in drug-treated NPCs (LINCS profiles); type: cell-based, human; conditions: drug-treated vs DMSO-treated, LINCS data
Text: Compounds were screened for drugs that can rescue the in vitro and in vivo phenotypes arising from ATP6V1A deficits. Using their drug repositioning tool, Ensemble of Multiple Drug Repositioning Approaches (EMUDRA) (Zhou et al., 2018b), the inventors matched the disease signature from the BM36-PHG region and the signatures of 3,629 drugs tested in the NPCs in the Library of Integrated Network-based Cellular Signatures (LINCS) project (FIG. 6A). The inventors further prioritized candidate drugs by their potential to increase the mRNA expression of ATP6V1A in the NPCs.
To identify existing drugs that can restore the molecular expression change in the LOAD brains, the inventors performed a drug repositioning analysis using EMUDRA, which provides a novel computational algorithm to match disease signatures and drug-induced signatures. The inventors downloaded drug-treated gene expression profiles (level 3 data of quantile-normalized and log 2 transformed expression levels from human iPSC-derived neural progenitor cells (NPCs) from the Library of Integrated Network-Based Cellular Signatures (LINCS) program. After removing probes sets mapping to multiple genes or without known gene annotation, the remaining data were adjusted for batch effects using linear regression. The mean expression level of multiple probe sets that match to the same gene was used as the expression level for that gene. For each drug, the applied drug signature was the transcriptome-wide expression difference between drug-treated and DMSO-treated gene expression profiles. The inventors matched each of the drug signatures to the LOAD signature using EMUDRA to find drugs that could reverse the LOAD signature. […] In total, 3,629 drug signatures were analyzed and ranked. The inventors further prioritized the top-ranked drugs that can increase ATP6V1A mRNA expression in the NPCs.

[2] = test system: ATP6V1A; assay: ATP6V1A mRNA (qRT-PCR) and protein (western blot) levels in hiPSC-derived NGN2 neurons (iNs); type: cell-based, human
Method: To verify this discovery, the inventors measured the transcriptional and translational levels of ATP6V1A in D21 iNs treated with the 3 HDAC inhibitors at a series of concentrations between 1 and 30 μM.
CRISPR inhibition (CRISPRi) was used to repress endogenous ATP6V1A in hiPSC-derived NGN2 neurons. […] Next, the inventors investigated whether LQ081-166 rescued the phenotypes of ATP6V1A deficit and reduced neuronal activity.
(§1) Quantitative reverse transcription PCR (qRT-PCR) was performed as previously described. Specifically, cell cultures were harvested with Trizol and total RNA extraction was carried out following the manufacturer's instructions. Quantitative transcript analysis was performed using a QuantStudio 7 Flex Real-Time PCR System with the Power SYBR Green RNA-to-Ct Real-Time qPCR Kit (all Thermo Fisher Scientific). Total RNA template (25 ng per reaction) was added to the PCR mix, including primers listed below. qPCR conditions were as follows; 48° C. for 30 min, 95° C. for 10 min followed by 40 cycles (95° C. for 15 s, 60° C. for 60 s). All qPCR data is collected from at least 3 independent biological replicates of one experiment. Data analyses were performed using GraphPad PRISM 6 software.
Cells were rinsed with ice-cold phosphate-buffered saline (PBS), pelleted, and lyzed in RIPA Lysis and Extraction Buffer (Thermo Fisher Scientific, #89900) containing Halt™ Protease and Phosphatase Inhibitor Cocktail (Thermo Fisher Scientific, #78440). Alternatively, MSBB BM36 brain samples were homogenized with similar methods. Samples were sonicated for 1 minute then centrifuged at 13,000× rpm for 10 min. The supernatant was collected, and total protein concentration was determined using Quick Start™ Bradford Protein Assay (Bio-Rad, 5000201) following the manufacturer's instructions.
(§2) Images were captured and quantified using the Odyssey® Imaging Systems (LI-COR. Inc.).
A stock solution of LQ081-166 (molecular weight: 452.63) at 3 mM is prepared in dimethyl sulfoxide (DMSO). Once prepared, aliquot the stock solution into 100 μL amounts and store at −80° C. Avoid repeated freeze-thaw cycles. The stock is diluted 1000× into neuronal medium to obtain 3 μM for assays. After 24-hour treatment, RNA was extracted from cells for quantitative PCR. In the MEA assay, LQ081-166 was added on neuronal differentiation day 14. Replace with medium containing drug or vehicle every 2-3 days until the final recording day.

[3] = test system: SYN1, SCL17A7/VGLUT, PSD95, HOMER1; assay: Synaptic marker mRNA and protein levels in iNs; type: cell-based, human
Method: as §1, §2

[4] = test system: Vha68-1, Vha68-2 (fly orthologs of ATP6V1A); assay: Vha68-1/Vha68-2 mRNA levels in fly brains after drug feeding; type: in vivo, Drosophila; conditions: fed
Method: Since Vha68-2 decreased more dramatically compared to Vha68-1 in Aβ42 fly brains (FIG. 4Q), an inference was made that NCH-51 treatment counteracts pathological reductions in Vha68-2 levels. […] More than 25 flies for each genotype were collected and frozen. Heads were mechanically isolated, and total RNA was extracted using TRIzol Reagent (Thermo Fisher Scientific) according to the manufacturer's protocol with an additional centrifugation step (16,000×g for 10 min) to remove cuticle membranes prior to the addition of chloroform. Total RNA was reverse-transcribed using PrimeScript RT-PCR kit (TaKaRa Bio), and qRT-PCR was performed using Thunderbird SYBR qPCR Mix (Toyobo) on a CFX96 real time PCR detection system (Bio-Rad Laboratories). The average threshold cycle value was calculated from at least three replicates per sample. Expression of genes of interest was standardized relative to GAPDH1. Primer sequences are provided below. Flies were fed with the food containing 10 μM or 50 μM NCH51 or vehicle (final concentration 0.02% dimethyl sulfoxide) from the day after eclosion. These food vials were changed every 3-4 days.

[5] = test system: Aβ42 flies; assay: Neurodegeneration (vacuole area) in Aβ42 fly brains after drug feeding; type: in vivo, Drosophila
Method: Aβ42 flies were treated with 0, 10, or 50 μM of NCH-51 during aging to examine its effects on neurodegeneration.
Heads of male flies were fixed in 4% paraformaldehyde for 24 hours at 4° C. and embedded in paraffin. Serial sections (6 μm thickness) through the entire heads were prepared, stained with hematoxylin and eosin (Sigma-Aldrich), and examined by bright-field microscopy. Images of the sections were captured with AxioCam 105 color (Carl Zeiss). To score brain vacuolization, the inventors performed microscopy of serial brain sections within the central neuropil regions and selected the images with the most severe vacuolization from each fly to score area of vacuolization. The inventors selected the section with the most severe neurodegeneration in the same brain area from each individual fly and the area of vacuoles was measured using Image J (NIH). The analyses were performed more than two times and two to three persons were independently involved in these tasks to avoid any bias.
Flies were fed with the food containing 10 μM or 50 μM NCH51 or vehicle (final concentration 0.02% dimethyl sulfoxide) from the day after eclosion. These food vials were changed every 3-4 days.

[6] = Aβ42 flies, 50 μM in food vs 0 μM

## CC(C)C(=O)SCCCCCCC(=O)Nc1nc(-c2ccccc2)cs1 [NCH-51]
[1]
  ATP6V1A (log2FC): 0.71 log2FC
[2]; 3 μM, 24-hr, particularly in ATP6V1A KD iNs, P<0.05
  ATP6V1A mRNA level: dramatically elevates
[2]; D21 iNs, concentrations between 1 and 30 μM
  transcriptional and translational levels of ATP6V1A: effectively increased ATP6V1A levels
[2]; iNs, 3 μM
  ATP6V1A protein yield: significantly increase the protein yield
[2]; iNs, 3 μM, P<0.05
  ATP6V1A protein level: similarly increased
[3]; 3 μM, 24-hr, iNs, P<0.001
  SCL17A7 mRNA level: dramatically elevates
  presynaptic SYN1 mRNA level: dramatically elevates
[3]; ATP6V1A KD iNs or isogenic controls
  HOMER1 levels: increased the HOMER1 levels
[3]; iNs
  postsynaptic PSD95: no effect
[3]; iNs, 3 μM, P<0.01
  SYN1 protein level: similarly increased
[3]; iNs, 3 μM, P<0.05
  VGLUT protein level: similarly increased
[4]; Aβ42 fly brains, dose-dependent
  mRNA levels of Vha68-2: significantly increased; also recorded: increased mRNA levels of Vha68-2
[4]; control flies
  mRNA levels of Vha68-1 or Vha68-2: did not increase
[5]; 21-day-old Aβ42 fly brains
  neurodegeneration in cell body and central neuropil regions: suppressed neurodegeneration
[5]; [6]
  cell loss (cell body region neurodegeneration): significantly suppressed
  neuropil degeneration: significantly suppressed
